Results as given in patent US12221453B2, “Substituted pyrazolo[5′,1′:2,3]pyrimido[5,4-b][1,4]oxazines as TYK2 inhibitors” (TAKEDA PHARMACEUTICAL COMPANY LIMITED, priority 2018, dated 2025).

tested on: IL-12 induced STAT4 phosphorylation mediated by TYK2/JAK2; assay: IL-12 induced pSTAT4 in human PBMC; type: cell-based; conditions: 1 hr compound, 1.7 ng/mL IL-12 for 30 minutes
Procedure: Human PBMC were isolated from buffy coat and are stored frozen for assays as needed. […] 15 μL of compound or DMSO was added to the well at the desired concentrations and incubated at 1 hr at 37° C. 15 μL of stimulus (final concentration of 1.7 ng/mL IL-12) was added for 30 minutes prior to pSTAT4 and total STAT4 analysis using cell lysates prepared and analyzed by MSD reagents as per manufacturer protocol. The final DMSO concentration of compound in the assay was 0.1%. The IL-12 induced pSTAT4 assay evaluates the inhibition of IL-12 induced STAT4 phosphorlyation mediated by TYK2/JAK2 ([…] complex).

| SMILES | IC50 [µM] |
| --- | --- |
| CNc1cc(Nc2cccn([C@H]3CC[C@@H]3OC)c2=O)nc2c(C(=O)N[C@H]3CC[C@H]3O)cnn12 [Compound I-240] | < 0.1 |
| CNc1ccc(-c2cc(NC)n3ncc(C(=O)N[C@@H]4CC[C@H]4OC)c3n2)n2ccnc12 [Compound I-490] | < 0.1 |
| CNc1ccc(-c2cc(NC)n3ncc(C(=O)NC4CC[C@@H]4OC)c3n2)n2ccnc12 (stereo partly shown) [Compound I-488] | < 0.1 |
| CNc1cc(-c2cn([C@H]3CCC[C@H]3F)c3ncccc23)nc2c(C(=O)N[C@H]3COC[C@H]3O)cnn12 [Compound I-722] | < 0.1 |
| CNc1cc(Nc2cccn([C@H]3C[C@H](OC)C3)c2=O)nc2c(C(=O)N[C@H]3CCC3(F)F)cnn12 [Compound I-293] | < 0.1 |
| CNc1cc(Nc2cccn(C(C)C)c2=O)nc2c(C(=O)NC3CC[C@]3(C)O)cnn12 (stereo partly shown) [Compound I-339] | < 0.1 |
| CNc1cc(-c2cn([C@H]3CCN(C)C3)c3ncccc23)nc2c(C(=O)N[C@H]3CC[C@@H]3OC)cnn12 [Compound I-619] | < 0.1 |
| CNc1cc(-c2cnc3n([C@H]4COC[C@@H]4O)cccc2-3)nc2c(C(=O)NC3CCC3(F)F)cnn12 (stereo partly shown) [Compound I-898] | < 0.1 |
| CNc1cc(Nc2cccn([C@H]3CC[C@H](OC)CC3)c2=O)nc2c(C(=O)N[C@H]3CC[C@@H]3F)cnn12 [Compound I-225] | < 0.1 |
| CNc1cc(-c2cn([C@@H]3COC[C@@H]3F)c3ncccc23)nc2c(C(=O)NC3CC[C@@H]3OC)cnn12 (stereo partly shown) [Compound I-621] | < 0.1 |
| CNc1cc(Nc2cccn(-c3ocnc3C)c2=O)nc2c(C(=O)N[C@H]3CC[C@@H]3F)cnn12 [Compound I-186] | < 0.1 |
| CNc1cc(-c2cnc3n([C@H]4CCOC4)cccc2-3)nc2c(C(=O)N[C@H]3CC[C@@H]3OC)cnn12 [Compound I-1002] | < 0.1 |
| CNc1cc(-c2cn([C@@H]3CCOC3)c3ncccc23)nc2c(C(=O)N[C@H]3CC[C@@H]3OC)cnn12 [Compound I-610] | < 0.1 |
| CNc1cc(Nc2cccn([C@@H]3CCCOC3)c2=O)nc2c(C(=O)NC3CCC3(F)F)cnn12 (stereo partly shown) [Compound I-315] | < 0.1 |
| CNc1cc(Nc2cccn(C3CCOCC3)c2=O)nc2c(C(=O)NC3CC[C@H]3F)cnn12 (stereo partly shown) [Compound I-191] | < 0.1 |
| O=C(N[C@H]1CC[C@@H]1F)c1cnn2c3c(c(-c4cn([C@H]5C[C@H](O)C5)c5ncccc45)nc12)OCCN3 [Compound I-757] | < 0.1 |
| CNc1cc(Nc2cccn([C@H]3C[C@H](F)C3)c2=O)nc2c(C(=O)N[C@H]3CC[C@H]3O)cnn12 [I-16, 5-((1-((1r,3S)-3-Fluorocyclobutyl)-2-oxo-1,2-dihydropyridin-3-yl)amino)-N-((1S,2R)-2-hydroxycyclobutyl)-7-(methylamino)pyrazolo[1,5-a]pyrimidine-3-carboxamide] | < 0.1 |
| CNc1cc(Nc2cccn([C@H]3CCC[C@@H](C#N)C3)c2=O)nc2c(C(=O)N[C@@H]3CC[C@H]3OC)cnn12 [Compound I-258] | < 0.1 |
| CNc1cc(-c2cn([C@@H]3CCC4(C3)OCCO4)c3ncccc23)nc2c(C(=O)NC3CC[C@@H]3OC)cnn12 (stereo partly shown) [Compound I-672] | < 0.1 |
| CNc1cc(-c2cnc3n(CCCN4CCOCC4)cccc2-3)nc2c(C(=O)N[C@H]3CC[C@@H]3OC)cnn12 [Compound I-990] | < 0.1 |
| CNc1cc(-c2cn([C@H]3C[C@@H](O)C3)c3ncccc23)nc2c(C(=O)NC3CCC3(F)F)cnn12 (stereo partly shown) [Compound I-677] | < 0.1 |

| SMILES | IC50 [µM] |
| --- | --- |
| CNc1cc(Nc2cccn(-c3ncccc3F)c2=O)nc2c(C(=O)N[C@@H]3CC[C@@]3(C)OC)cnn12 [Compound I-415] | < 0.1 |
| CNc1cc(-c2cnc3n([C@@H]4CCOC4)cccc2-3)nc2c(C(=O)NC3CC[C@@H]3OC)cnn12 (stereo partly shown) [Compound I-995] | < 0.1 |
| CNc1cc(Nc2cccn(C3CCOCC3)c2=O)nc2c(C(=O)N[C@H]3CC[C@]3(C)O)cnn12 [Compound I-349] | < 0.1 |
| CNc1cc(Nc2cccn([C@H]3CC[C@@H]3O)c2=O)nc2c(C(=O)N[C@@H]3CC[C@@]3(C)OC)cnn12 [Compound I-377] | < 0.1 |
| CNc1cc(Nc2cccn([C@@H]3CCOC[C@@H]3OC)c2=O)nc2c(C(=O)N[C@@H]3CC[C@H]3F)cnn12 [Compound I-217] | < 0.1 |
| CNc1cc(Nc2cccn([C@@H]3C[C@H]3F)c2=O)nc2c(C(=O)NC3CC[C@@H]3F)cnn12 (stereo partly shown) [Compound I-151] | < 0.1 |
| CNc1cc(-c2cn([C@@H]3CCOC[C@H]3O)c3ncccc23)nc2c(C(=O)N[C@H]3CC[C@@H]3F)cnn12 [Compound I-538] | < 0.1 |
| CNc1cc(Nc2cccn([C@H]3CCC[C@@H](C#N)C3)c2=O)nc2c(C(=O)N[C@H]3CCC3(F)F)cnn12 [Compound I-331] | < 0.1 |
| CNc1cc(Nc2cccn([C@H]3CCCOC3)c2=O)nc2c(C(=O)NC3CCC3(F)F)cnn12 (stereo partly shown) [Compound I-312] | < 0.1 |
| CNc1cc(Nc2cccn([C@H]3C[C@@H]3F)c2=O)nc2c(C(=O)N[C@@H]3CCC3(F)F)cnn12 [Compound I-279] | < 0.1 |
| CNc1cc(-c2cn([C@@H]3CCOC[C@H]3F)c3ncccc23)nc2c(C(=O)N[C@H]3CC[C@@H]3OC)cnn12 [Compound I-804] | < 0.1 |
| CNc1cc(Nc2cccn(C3CCOCC3)c2=O)nc2c(C(=O)NC3CC[C@@]3(C)OC)cnn12 (stereo partly shown) [Compound I-405] | < 0.1 |
| CNc1cc(-c2cn(CCOC)c3ncccc23)nc2c(C(=O)NC3CC[C@@H]3OC)cnn12 (stereo partly shown) [Compound I-795] | < 0.1 |
| CNc1cc(-c2cn([C@H]3CN(C)C[C@@H]3OC)c3ncccc23)nc2c(C(=O)N[C@H]3CC[C@@H]3OC)cnn12 [Compound I-649] | < 0.1 |
| CNc1cc(-c2cn([C@H]3COC[C@@H]3O)c3ncccc23)nc2c(C(=O)N[C@H]3CC[C@@H]3OC)cnn12 [Compound I-631] | < 0.1 |
| CNc1cc(-c2cn([C@H]3COC[C@@H]3OC)c3ncccc23)nc2c(C(=O)N[C@H]3CC[C@H]3F)cnn12 [Compound I-529] | < 0.1 |
| CNc1cc(Nc2cccn([C@H]3C[C@@H]3F)c2=O)nc2c(C(=O)N[C@@H]3C[C@H]3OC)cnn12 [Compound I-133] | < 0.1 |
| CNc1cc(-c2cn([C@H]3[C@@H]4COC[C@@H]43)c3ncccc23)nc2c(C(=O)N[C@H]3CC[C@@H]3OC)cnn12 [I-793, 5-(1-((1R,5S,6r)-3-oxabicyclo[3.1.0]hexan-6-yl)-1H-pyrrolo[2,3-b]pyridin-3-yl)-N-((1S,2S)-2-methoxycyclobutyl)-7-(methylamino)pyrazolo[1,5-a]pyrimidine-3-carboxamide] | < 0.1 |
| CNc1cc(Nc2cccn([C@H]3C[C@@H]3OC)c2=O)nc2c(C(=O)N[C@H]3CC[C@@H]3F)cnn12 [Compound I-158] | < 0.1 |
| CNc1cc(-c2cn([C@H]3COC[C@@H]3OC)c3ncccc23)nc2c(C(=O)NC3CC[C@H]3F)cnn12 (stereo partly shown) [Compound I-528] | < 0.1 |
| CNc1cc(-c2cn([C@@H]3COC[C@H]3OC)c3ncccc23)nc2c(C(=O)NC3CC[C@@H]3OC)cnn12 (stereo partly shown) [Compound I-636] | < 0.1 |

| SMILES | IC50 [µM] |
| --- | --- |
| CNc1cc(Nc2cccn(C3CCC[C@@](C)(OC)C3)c2=O)nc2c(C(=O)N[C@@H]3C[C@@H]3F)cnn12 (stereo partly shown) [Compound I-130] | < 0.1 |
| CNc1cc(-c2cn([C@H]3COC[C@@H]3OC)c3ccccc23)nc2c(C(=O)N[C@H]3CC[C@@H]3OC)cnn12 [Compound I-742] | < 0.1 |
| CNc1cc(-c2cn([C@H]3COC[C@H]3F)c3ncccc23)nc2c(C(=O)N[C@H]3COC[C@H]3O)cnn12 [Compound I-726] | < 0.1 |
| CNc1ccc(-c2cc(NC)n3ncc(C(=O)N[C@H]4CC[C@H]4F)c3n2)n2ccnc12 [Compound I-784] | < 0.1 |
| CNc1cc(-c2cn(C3COC3)c3ncccc23)nc2c(C(=O)NC3CCC3(F)F)cnn12 (stereo not shown) [Compound I-673] | < 0.1 |
| CNc1cc(-c2cn(C3CCCC3)c3ncccc23)nc2c(C(=O)NC3CCC3(F)F)cnn12 (stereo not shown) [Compound I-680] | < 0.1 |
| CNc1cc(-c2cn([C@H]3CCOC[C@@H]3F)c3ncccc23)nc2c(C(=O)N[C@H]3CC[C@@H]3OC)cnn12 [Compound I-802] | < 0.1 |
| CNc1cc(-c2cn(C3CN(C)C3)c3ncccc23)nc2c(C(=O)NC3CC[C@@H]3OC)cnn12 (stereo partly shown) [Compound I-608] | < 0.1 |
| CNc1cc(-c2cnc3n([C@@H]4COC[C@H]4O)cccc2-3)nc2c(C(=O)N[C@H]3CCC3(F)F)cnn12 [Compound I-902] | < 0.1 |
| CNc1cc(-c2cnc3n([C@H]4COC[C@@H]4OC)cccc2-3)nc2c(C(=O)N[C@H]3CC[C@@H]3F)cnn12 [Compound I-833] | < 0.1 |
| CNc1cc(Nc2cccn([C@H]3CCC[C@H](OC)C3)c2=O)nc2c(C(=O)NC3CC[C@@H]3F)cnn12 (stereo partly shown) [Compound I-230] | < 0.1 |
| CNc1cc(-c2cnc3n([C@@H]4COC[C@H]4O)cccc2-3)nc2c(C(=O)NC3CCC3(F)F)cnn12 (stereo partly shown) [Compound I-901] | < 0.1 |
| CNc1cc(Nc2cccn(C(C)C)c2=O)nc2c(C(=O)N[C@@H]3CC[C@@]3(C)O)cnn12 [Compound I-341] | < 0.1 |
| CNc1cc(Nc2cccn(-c3ocnc3C)c2=O)nc2c(C(=O)NC3CC[C@@H]3F)cnn12 (stereo partly shown) [Compound I-185] | < 0.1 |
| CNc1cc(Nc2cccn(C3CCOCC3)c2=O)nc2c(C(=O)N[C@H]3CC[C@]3(C)OC)cnn12 [Compound I-407] | < 0.1 |
| CNc1cc(-c2cnc3n([C@@H]4COC[C@H]4O)cccc2-3)nc2c(C(=O)NC3CC[C@@H]3F)cnn12 (stereo partly shown) [Compound I-827] | < 0.1 |
| CNc1ccc(-c2cc(NC)n3ncc(C(=O)N[C@H]4CC[C@H]4O)c3n2)n2ccnc12 [Compound I-485] | < 0.1 |
| CNc1cc(-c2cn([C@@H]3CCOC[C@H]3F)c3ncccc23)nc2c(C(=O)NC3CC[C@@H]3OC)cnn12 (stereo partly shown) [Compound I-652] | < 0.1 |
| CNc1cc(Nc2cccn(-c3ccccn3)c2=O)nc2c(C(=O)NC3CC[C@@H]3F)cnn12 (stereo partly shown) [Compound I-200] | < 0.1 |
